According to patent US20100151572A1, “ANTI-TUMORAL COMPOSITIONS METHODS” (priority 2005, published 2010):

Columns and labels:
[1] = system: Cc1ncnc2c1ncn2[C@H]1C[C@H](O)[C@@H](CO)O1; experiment: purified protein, by the assay type; type: biochemical; settings: other: substrate of E. coli PNP
Text: (§1) Table 1 describes the kinetic constants underlying these enzymatic reactions with E. coli PNP.

[2] = system: Nc1nc(F)nc2c1ncn2[C@H]1C[C@H](O)[C@@H](CO)O1; experiment: purified protein, by the assay type; type: biochemical; settings: other: substrate of E. coli PNP
Text: as §1

[3] = system: Nc1nc(F)nc2c1ncn2[C@@H]1O[C@H](CO)[C@@H](O)[C@@H]1O; experiment: purified protein, by the assay type; settings: other: substrate of E. coli PNP
[4] = Systemic dose response tolerability in mice, human dose by Freireich formula; type: in vivo
Text: The formula of Freireich et al., Cancer Chemother. Rep., 50:219 244, (1966) can be used to determine the maximum tolerated dose of substrate for a human subject. […] This amount or slightly less should be tolerated in humans with minimal side effects. Furthermore, it is understood that modes of administration that permit the substrate to remain localized at or near the site of the tumor will be effective at lower doses than systemically administered substrates.

[5] = cited from earlier work
[6] = F-Ade plasma levels after prodrug injection in tumor-bearing mice; type: in vivo
Method: Measurements of generation and clearance of circulating F-Ade are made by HPLC for example. Radiolabeled prodrug is obtained from Moravek Biochemicals and injected into mice by the same route and dosage used in efficacy experiments for comparison. Plasma samples are removed at increasing time intervals after injection of prodrug and analyzed by reverse-phase HPLC for parent compound and base. Identification of prodrug and F-Ade is by HPLC as described above.
When tumors are approximately 200 mg the mice are injected intraperitoneally with 20 mg/kg 3H-F-dAdo. […] Four mice from each group are sacrificed 5, 15, 30, and 60 minutes after injection of F-dAdo, and plasma samples were obtained. The amount of F-Ade is determined in each plasma sample using reverse phase HPLC, as described.
A similar experiment is conducted with F-araAMP. […] The limit of detection in these experiments with fludarabine is approximately 1 micromolar.

[7] = Maximally tolerated dose of prodrug in mice; type: in vivo; settings: for MTD in mice bearing tumors that express E. coli PNP: versus mice without PNP tumors
Method: For experiments shown in FIG. 7, sixteen mice are implanted subcutaneously with D54 parental, no PNP expression cells, D54/PNP MuLv, approximately 250 PNP units), or D54/lentiPNP, […] PNP units tumor cells as described for efficacy evaluations. When tumors are approximately 200 mg the mice are injected intraperitoneally with 20 mg/kg 3H-F-dAdo. This dose of F-dAdo is the maximally tolerated dose of F-dAdo when given 5 times daily for 3 consecutive days. Four mice from each group are sacrificed 5, 15, 30, and 60 minutes after injection of F-dAdo, and plasma samples were obtained. The amount of F-Ade is determined in each plasma sample using reverse phase HPLC, as described.
There is no difference in the F-Ade plasma levels in mice bearing tumors with different levels of E. coli PNP activity, which is consistent with the fact that the MTD of F-dAdo is not reduced in mice bearing tumors that express E. coli PNP.
A similar experiment is conducted with F-araAMP. […] The limit of detection in these experiments with fludarabine is approximately 1 micromolar. As with F-dAdo, the MTD of F-araAMP is not reduced in mice bearing tumors that express E. coli PNP (either from lentivirus or MuLv), or when given in combination with vectors that express E. coli PNP.

[8] = system: D54 human glioma tumors; experiment: Ad-PNP injection of D54 tumors followed by F-araAMP; type: in vivo
Method: D54 human glioma tumors (appx. 250 mg) are injected with an Ad-PNP (2×10^9 PFU, open circles) or saline (closed circles). PNP activity in tumor extracts taken two days after vector administration is approximately 5000 PNP units.

[9] = system: HeLa cells; experiment: Ad-PNP mediated cell killing in vitro, crystal violet staining; type: cell-based, human; settings: MeP-dR 40 micrograms/milliliter, adenoviral MOI 0.1-100, stained 6 days post infection
Method: Confluent HeLa cells are infected with Ad-PNP at various MOIs. MeP-dR is added at 40 micrograms/milliliter in one set of cells at 24 hours post infection. At 6 days post infection, all cultures are stained with Crystal Violet to visualize living cells.
FIG. 17 depicts results using an Ela deleted adenoviral vector encoding E. coli PNP as described herein.

[10] = system: D54 glioma tumors (MuLv-PNP transduced); experiment: D54 tumors expressing E. coli PNP from MuLV, prodrug treatment in vivo
Method: For example, in one in vivo tumor model, tumors are established in animals by subcutaneous implantation of about 10^7 cells into the axillary region of 6-10 mice. Athymic (or scid) mice are used for models of certain human tumors including cells such as D54, HCT-15, and SR475 head/neck. Syngeneic models are also used. For instance, mouse tumors are established using Colon 26 and G26 glioma cells.
The resulting solid tumors are measured twice weekly in two dimensions and the mass calculated using the formula for a prolate ellipsoid, [length (mm)×width^2 (mm)]/2=mg, assuming unit density. The data will permit the determination of a tumor volume doubling time, % “no takes”, and % spontaneous regressions.
PNP expression in MuLv was driven by an SV40 promoter. Mice are given non-absorbable antibiotics in their drinking water prior to treatment with high doses of MeP-dR (e.g. 168 mg/kg/d×3d) to minimize intestinal cleavage of the compound (Bharara, S., et al., 2005, Human Gene Therapy 16:339-347.). Antibiotics are not co:administered for lower doses of MeP-dR, or with less avid substrates such as fludarabine.

[11] = system: D54 glioma tumors (lentivirus PNP); experiment: D54 tumors expressing E. coli PNP from lentivirus, prodrug treatment in vivo; design: species or system human
Text: Syngeneic models are also used.
D54 glioma tumors are established from a stable cell line expressing E. coli PNP by a strong, CMV-based promoter in a lentiviral vector. FIG. 10 illustrates results. Open Circles: Tumors established from 10% PNP expressing/90% non-expressing tumor cells; PNP activity 9600±1300 units on day 14. Open Triangles: 5% expressing, 95% non-expressing tumor cells; PNP activity 5500±1700 units. Open Squares: Tumors established from 2.5% expressing, 97.5% non-expressing (PNP activity 3600±530 units). Closed symbols depict growth of corresponding (10%, 5%, 2.5%) PNP tumors treated with vehicle (saline control). At least six animals are studied per group. Identically treated animals from each study arm are sacrificed just prior to initiation of MeP-dR therapy (day 14) to measure intratumoral PNP acitivity. […] These experiments test the influence of substantially higher PNP activities on bystander killing in vivo. PNP activity in 300 mg tumors comprised of 100% lentivirus transduced cells is found to be approximately 126,000 PNP units (one unit=1 nmole MeP-dR converted per mg tumor tissue per hour). When the level of E. coli PNP is studied using lentiviral expression, improvements in bystander killing are observed as shown in FIG. 10.
FIG. 12 depicts a study in which 100% of cells express E. coli PNP using lentivirus. Complete regression and cures of tumors (12 of 12) are obtained with F-araAMP following a 3 day treatment schedule. […] Adjusting the schedule of F-araAMP may also improve bystander killing in vivo (FIG. 16).
Tumors in which 100% of cells expressed E. coli PNP are treated with a maximally tolerated dose (MTD, 100 mg/kg schedule, open circles) or half the MTD (closed triangles). Six animals are included per treatment group. […] PNP activity in these tumors is 126,000±16,000 units on the day of drug therapy.
Tumors are established from an inoculum in which 10% of cells expressed E. coli PNP. PNP expression on the day of drug treatment is 14,200±681 PNP units. Anti-tumor efficacy is greater at 100 mg/kg F-araAMP (open circles) than at 50 mg/kg (closed triangles) or 25 mg/kg (open triangles) given over a standard 3 day schedule (q2h×5, q1d×3 days).
D54 glioma tumors are established with decreasing proportions of PNP expressing cells (and increasing non-expressing (parental) cells). (open symbols: F-araAMP therapy; closed symbols: no prodrug therapy; circles: 2.5%; triangles 5%, and squares 10% PNP transduced cells). F-araAMP was 100 mg/kg q2h×5, q1d×3.
Tumors comprised of 5% PNP expressing cells and 2 different fludarabine schedules are shown.

[12] = system: human glioma tumors; experiment: HSV-PNP intratumoral inoculation of human glioma tumors in mice; type: in vivo; settings: intratumoral MeP-dR 168 mg/kg daily x 3 days with HSV-PNP
Method: Using HSV-PNP, a composition including 17 million pfu of the virus in 50 microliters is administered on day 16 following establishment of human glioma tumors in mice. HSV-PNP by itself slows growth of tumors following intratumoral inoculation, approximately 20 days delay to one tumor doubling.

[13] = system: D54 tumors (no PNP expression); experiment: Control D54 tumors without PNP expression, drug treatment in vivo
[14] = Safety analysis in flank and CNS tumor models with PNP/F-araAMP; type: in vivo

E. coli PNP (Escherichia coli K-12)
Km [1]: 125 µM
Vmax [1]: 24.3 µmol/min/mg
Km [2]: 22 µM
Vmax [2]: 7.08 µmol/min/mg
Km [3]: 960 µM
Vmax [3]: 0.0983 µmol/min/mg

Cc1ncnc2c1ncn2[C@@H]1O[C@H]([C@H](C)O)[C@@H](O)[C@H]1O [5′-methyl(talo)MeP-R]
human dosage determined by formula of Freireich ([4]; 200 mg/kg times 3, from mouse data): 600 mg/m^2
tolerability ([4]; mice, systemic, 200 mg per kg per day for 3 days (3 doses total)): well tolerated

Nc1nc(F)nc2c1ncn2[C@@H]1O[C@H](CO)[C@@H](O)[C@@H]1O [F-araA, 9-(beta-D-arabinofuranosyl)-2-fluoroadenine]
circulating half life ([5]; in vivo): 50 min
peak levels compared with MeP-dR ([5]; in vivo): significantly higher

Nc1nc(F)nc2c1ncn2[C@H]1C[C@H](O)[C@@H](CO)O1 [2-F-dAdo, 2-fluoro-2′-deoxyadenosine]
F-Ade plasma levels in mice bearing tumors with different levels of E. coli PNP activity ([6]; 20 mg/kg 3H-F-dAdo ip, 5, 15, 30, 60 min, D54 parental, D54/PNP MuLv, D54/lentiPNP tumors): no difference
maximally tolerated dose ([7]; mouse, in vivo, 3 days): 20 mg/kg
MTD in mice bearing tumors that express E. coli PNP [7]: not reduced

Ad-PNP
PNP activity in tumor extracts ([8]; two days after vector administration, 2x10^9 PFU): approximately 5000 PNP units

Cc1ncnc2c1ncn2[C@H]1C[C@H](O)[C@@H](CO)O1 [MeP-dR, 9-(2-deoxy-beta-D-ribofuranosyl]-6-methylpurine]
cell killing in combination with Ad-PNP [9]: sufficient to eliminate populations of cancer cells
anti-tumor effect vs non-treatment groups ([10]; 20% PNP-expressing / 80% parental cells, MeP-dR, p<0.002): significantly different from non-treatment groups
tolerability of treatments ([10]; MeP-dR, 20% PNP (MuLv) and parental tumors): well tolerated without limiting weight loss or lethality
antitumor effects vs non-treatment groups ([11]; MeP-dR, 10%, 5%, 2.5% PNP expressing cells, p<0.05 (2.5%), p<0.005 (5% and 10%)): significantly different from non-treatment groups
circulating half life ([5]; in vivo): ~20 min
half life in serum ([5]; in vivo): 15 to 20 min
anti-tumor effect with HSV-PNP [12]: improves tumor regressions and arrest of tumor growth

O=NN(CCCl)C(=O)NCCCl [BCNU]
activity against D54 tumors ([13]; at maximally tolerated doses): minimal activity

Nc1nc(F)nc2c1ncn2[C@@H]1O[C@H](COP(=O)(O)O)[C@@H](O)[C@@H]1O [F-araAMP]
duration of regressions ([10]; 100% of cells expressed E. coli PNP (MuLv), tumors subsequently escape): ~30 days
bystander killing in vivo ([10]; F-araAMP following E. coli PNP transduction with MuLv): little or no bystander killing
anti-tumor effect together with Ad-PNP ([8]; Ad-PNP 2x10^9 PFU, tumors appx. 250 mg, p<0.002 vs virus alone or no treatment): slowing of tumor growth
toxicity in the study ([8]; Ad-PNP together with F-araAMP): No limiting weight loss, animal deaths or other toxicities
animal longevity [14]: improved animal longevity
toxicity as judged by weight loss or lethality [14]: have not indicated significant toxicity
anti-tumor effect vs non-treatment groups ([11]; 2.5%, 5%, 10% PNP transduced cells, 100 mg/kg q2h x5, q1d x3, p<0.001): significantly different from non-treatment groups
anti-tumor effect vs non-treatment group ([11]; 5% PNP expressing cells, 2 different schedules, p<0.001): significantly different from non-treatment group
anti-tumor effect vs non-treatment group ([11]; 10% PNP cells, 100, 50 or 25 mg/kg q2h x5, q1d x3 days, p<0.001, efficacy greater at 100 mg/kg): significantly different from non-treatment group
tolerability during tumor regressions ([11]; 100% PNP tumors, F-araAMP MTD or half MTD): without excessive weight loss or other undesired sequelae
complete regression and cures of tumors ([11]; 100% of cells express PNP, F-araAMP 3 day schedule, MTD (100 mg/kg) or half the MTD, six animals per group): 12 of 12 and cured of their tumors
anti-tumor effects at low proportion of PNP cells ([11]; as few as 2.5% of tumor cells express PNP): Anti-tumor effects are observed
prodrug in plasma ([5]; 4 hours after injection of F-araAMP): very little prodrug in plasma
F-Ade in plasma of mice bearing tumors expressing E. coli PNP ([6]; 100 mg/kg F-araAMP, limit of detection approximately 1 micromolar): no F-Ade is detected
maximally tolerated dose ([7]; given 5 times daily for 3 consecutive days, mice): 100 mg/kg
MTD in mice bearing tumors that express E. coli PNP [7]: not reduced
effect on control D54 tumors ([13]; no PNP expression, GFP control transgene, standard 3 day schedule): no effect
